40 compounds from patent US8394848B2, “Compounds that modulate intracellular calcium” (Calcimedica, Inc., priority 2008, dated 2013) can be followed below.

The assay relates to JR251 or RBL cells. Kind of assay: Store-operated calcium entry, either JR251 or RBL cells, or both. It counts as cell-based. The procedure, abridged: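 Orai1/STIM1 stable cells: fluo-4-AM loaded, compound 30 min at RT in Ca2+-free HBSS, then CaCl2 added; IC50 from Peak-Basal FLIPR fluorescence. RBL-2H3 cells: compound 5 min, then thapsigargin (5.5× stock, 5.5 uM) 25 min, then calcium added; IC50 from Upslope (signal 7 s after calcium minus baseline).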
In the case of `O=C(Nc1scc(-c2ccc(Cl)c(F)c2F)c1C(=O)O)c1nc2ccccc2s1` [2-(benzo[d]thiazole-2-carboxamido)-4-(4-chloro-2,3-difluorophenyl)thiophene-3-carboxylic acid], the half-maximal inhibitory concentration (IC50) (commonly the midpoint of a concentration-inhibition curve) was less than 10 µM.

As for `O=C(Nc1scc(-c2ccc(Cl)cc2F)c1C(=O)O)c1nc2ccccc2s1` [2-(benzo[d]thiazole-2-carboxamido)-4-(4-chloro-2-fluorophenyl)thiophene-3-carboxylic acid], the half-inhibitory concentration (IC50) is less than 10 µM.

For `O=C(Nc1scc(-c2cc(F)c(Cl)c(F)c2)c1C(=O)O)c1nc2ccccc2s1` [2-(benzo[d]thiazole-2-carboxamido)-4-(4-chloro-3,5-difluorophenyl)thiophene-3-carboxylic acid], the half-inhibitory concentration (IC50) is less than 10 µM.

In the case of `O=C(Nc1scc(-c2ccc(Cl)c(F)c2)c1C(=O)O)c1nc2ccccc2s1` [2-(benzo[d]thiazole-2-carboxamido)-4-(4-chloro-3-fluorophenyl)thiophene-3-carboxylic acid], the half-inhibitory concentration (IC50) is less than 10 µM.

With `O=C(Nc1scc(-c2ccc(Cl)cc2)c1C(=O)O)c1nc2ccccc2s1` [2-(benzo[d]thiazole-2-carboxamido)-4-(4-chlorophenyl)thiophene-3-carboxylic acid], the 50% inhibitory concentration (IC50) is less than 10 µM.

With `O=C(Nc1scc(-c2cc3cccc(O)c3o2)c1C(=O)O)c1nc2ccccc2s1` [2-(benzo[d]thiazole-2-carboxamido)-4-(7-hydroxybenzofuran-2-yl)thiophene-3-carboxylic acid], the IC50 is less than 10 µM.

With `Cc1ccc(-c2csc(NC(=O)c3nc4ccccc4s3)c2C(=O)O)cc1` [2-(benzo[d]thiazole-2-carboxamido)-4-p-tolylthiophene-3-carboxylic acid], the half-inhibitory concentration (IC50) was less than 10 µM.

Turning to `O=C(Nc1scc(-c2ccc(Cl)cc2)c1C(=O)O)c1ccc2scnc2c1` [2-(benzo[d]thiazole-5-carboxamido)-4-(4-chlorophenyl)thiophene-3-carboxylic acid], the IC50 was less than 10 µM.

Regarding `O=C(Nc1scc(-c2ccc(Cl)cc2)c1C(=O)O)c1ccc2ncsc2c1` [2-(benzo[d]thiazole-6-carboxamido)-4-(4-chlorophenyl)thiophene-3-carboxylic acid], the IC50 is less than 10 µM.

As to `O=C(Nc1scc(-c2ccc(Cl)cc2)c1C(=O)O)c1nnc2ccccc2n1` [2-(benzo[e][1,2,4]triazine-3-carboxamido)-4-(4-chlorophenyl)thiophene-3-carboxylic acid], the IC50 is less than 10 µM.

On to `COc1ccc(-c2csc(NC(=O)c3cc4ccccc4o3)c2C(=O)O)c(F)c1F` [2-(benzofuran-2-carboxamido)-4-(2,3-difluoro-4-methoxyphenyl)thiophene-3-carboxylic acid], for which the IC50 is less than 10 µM.

As for `Cc1ccc(-c2csc(NC(=O)c3cc4ccccc4o3)c2C(=O)O)c(F)c1F` [2-(benzofuran-2-carboxamido)-4-(2,3-difluoro-4-methylphenyl)thiophene-3-carboxylic acid], the IC50 was less than 10 µM.

As to `O=C(Nc1scc(-c2ccc3c(c2)CCC3)c1C(=O)O)c1cc2ccccc2o1` [2-(benzofuran-2-carboxamido)-4-(2,3-dihydro-1H-inden-5-yl)thiophene-3-carboxylic acid], the IC50 was less than 10 µM.

As for `O=C(Nc1scc(-c2c(F)cc(F)cc2F)c1C(=O)O)c1cc2ccccc2o1` [2-(benzofuran-2-carboxamido)-4-(2,4,6-trifluorophenyl)thiophene-3-carboxylic acid], the concentration for half-maximal inhibition (IC50) is less than 10 µM.

`N#Cc1c(Cl)ccc(-c2csc(NC(=O)c3cc4ccccc4o3)c2C(=O)O)c1Cl` [2-(benzofuran-2-carboxamido)-4-(2,4-dichloro-3-cyanophenyl)thiophene-3-carboxylic acid]: the half-maximal inhibitory concentration (IC50) was less than 10 µM.

Regarding `COc1c(Cl)ccc(-c2csc(NC(=O)c3cc4ccccc4o3)c2C(=O)O)c1Cl` [2-(benzofuran-2-carboxamido)-4-(2,4-dichloro-3-methoxyphenyl)thiophene-3-carboxylic acid], the IC50 was less than 10 µM.

For `O=C(Nc1scc(-c2ccc(F)c(O)c2F)c1C(=O)O)c1cc2ccccc2o1` [2-(benzofuran-2-carboxamido)-4-(2,4-difluoro-3-hydroxyphenyl)thiophene-3-carboxylic acid], the IC50 was less than 10 µM.

Consider `COc1c(F)ccc(-c2csc(NC(=O)c3cc4ccccc4o3)c2C(=O)O)c1F` [2-(benzofuran-2-carboxamido)-4-(2,4-difluoro-3-methoxyphenyl)thiophene-3-carboxylic acid], for which the IC50 is less than 10 µM.

With `COc1cc(F)c(-c2csc(NC(=O)c3cc4ccccc4o3)c2C(=O)O)cc1F` [2-(benzofuran-2-carboxamido)-4-(2,5-difluoro-4-methoxyphenyl)thiophene-3-carboxylic acid], the IC50 was less than 10 µM.

In the case of `COc1cc(F)c(-c2csc(NC(=O)c3cc4ccccc4o3)c2C(=O)O)c(F)c1` [2-(benzofuran-2-carboxamido)-4-(2,6-difluoro-4-methoxyphenyl)thiophene-3-carboxylic acid], the half-maximal inhibitory concentration (IC50) was less than 10 µM.

As for `O=C(Nc1scc(-c2cc(F)c(F)c(F)c2)c1C(=O)O)c1cc2ccccc2o1` [2-(benzofuran-2-carboxamido)-4-(3,4,5-trifluorophenyl)thiophene-3-carboxylic acid], the IC50 was less than 10 µM.

As for `Cc1c(-c2csc(NC(=O)c3cc4ccccc4o3)c2C(=O)O)ccc(Cl)c1Cl` [2-(benzofuran-2-carboxamido)-4-(3,4-dichloro-2-methylphenyl)thiophene-3-carboxylic acid], the IC50 was less than 10 µM.

Regarding `O=C(Nc1scc(-c2ccc(Br)c(F)c2F)c1C(=O)O)c1cc2ccccc2o1` [2-(benzofuran-2-carboxamido)-4-(4-bromo-2,3-difluorophenyl)thiophene-3-carboxylic acid], the IC50 was less than 10 µM.

With `Cc1cc(-c2csc(NC(=O)c3cc4ccccc4o3)c2C(=O)O)c(C)cc1Br` [2-(benzofuran-2-carboxamido)-4-(4-bromo-2,5-dimethylphenyl)thiophene-3-carboxylic acid], the half-inhibitory concentration (IC50) is less than 10 µM.

With `O=C(Nc1scc(-c2ccc(Cl)c(F)c2F)c1C(=O)O)c1cc2ccccc2o1` [2-(benzofuran-2-carboxamido)-4-(4-chloro-2,3-difluorophenyl)thiophene-3-carboxylic acid], the IC50 is less than 10 µM.

As for `O=C(Nc1scc(-c2cc(F)c(Cl)cc2F)c1C(=O)O)c1cc2ccccc2o1` [2-(benzofuran-2-carboxamido)-4-(4-chloro-2,5-difluorophenyl)thiophene-3-carboxylic acid], the 50% inhibitory concentration (IC50) is less than 10 µM.

As for `Cc1cc(-c2csc(NC(=O)c3cc4ccccc4o3)c2C(=O)O)c(F)cc1Cl` [2-(benzofuran-2-carboxamido)-4-(4-chloro-2-fluoro-5-methylphenyl)thiophene-3-carboxylic acid], the half-maximal inhibitory concentration (IC50) was less than 10 µM.

With `O=C(Nc1scc(-c2cc(F)c(Cl)c(F)c2)c1C(=O)O)c1cc2ccccc2o1` [2-(benzofuran-2-carboxamido)-4-(4-chloro-3,5-difluorophenyl)thiophene-3-carboxylic acid], the IC50 was less than 10 µM.

`O=C(Nc1scc(-c2ccc(C3CC3)c(F)c2F)c1C(=O)O)c1cc2ccccc2o1` [2-(benzofuran-2-carboxamido)-4-(4-cyclopropyl-2,3-difluorophenyl)thiophene-3-carboxylic acid]: the half-maximal inhibitory concentration (IC50) was less than 10 µM.

Take `Cc1c(F)ccc(-c2csc(NC(=O)c3cc4ccccc4o3)c2C(=O)O)c1C` [2-(benzofuran-2-carboxamido)-4-(4-fluoro-2,3-dimethylphenyl)thiophene-3-carboxylic acid]: the concentration for half-maximal inhibition (IC50) was less than 10 µM.

With `Cc1cc(-c2csc(NC(=O)c3cc4ccccc4o3)c2C(=O)O)c(C)cc1F` [2-(benzofuran-2-carboxamido)-4-(4-fluoro-2,5-dimethylphenyl)thiophene-3-carboxylic acid], the IC50 was less than 10 µM.

With `COc1cc(C)c(-c2csc(NC(=O)c3cc4ccccc4o3)c2C(=O)O)cc1C` [2-(benzofuran-2-carboxamido)-4-(4-methoxy-2,5-dimethylphenyl)thiophene-3-carboxylic acid], the IC50 was less than 10 µM.

On to `COc1cc(C)c(-c2csc(NC(=O)c3cc4ccccc4o3)c2C(=O)O)c(C)c1` [2-(benzofuran-2-carboxamido)-4-(4-methoxy-2,6-dimethylphenyl)thiophene-3-carboxylic acid], for which the half-inhibitory concentration (IC50) is less than 10 µM.

With `COc1cc(Br)cc2cc(-c3csc(NC(=O)c4cc5ccccc5o4)c3C(=O)O)oc12` [2-(benzofuran-2-carboxamido)-4-(5-bromo-7-methoxybenzofuran-2-yl)thiophene-3-carboxylic acid], the IC50 was less than 10 µM.

For the compound `O=C(Nc1scc(-c2cc3cc(Br)ccc3o2)c1C(=O)O)c1cc2ccccc2o1` [2-(benzofuran-2-carboxamido)-4-(5-bromobenzofuran-2-yl)thiophene-3-carboxylic acid], the IC50 was less than 10 µM.

For `Cc1cc(F)c(-c2csc(NC(=O)c3cc4ccccc4o3)c2C(=O)O)cc1Cl` [2-(benzofuran-2-carboxamido)-4-(5-chloro-2-fluoro-4-methylphenyl)thiophene-3-carboxylic acid], the half-inhibitory concentration (IC50) is less than 10 µM.

With `O=C(Nc1scc(-c2cc3cc(Cl)ccc3o2)c1C(=O)O)c1cc2ccccc2o1` [2-(benzofuran-2-carboxamido)-4-(5-chlorobenzofuran-2-yl)thiophene-3-carboxylic acid], the 50% inhibitory concentration (IC50) is less than 10 µM.

As to `O=C(Nc1scc(-c2cc3cc(O)ccc3o2)c1C(=O)O)c1cc2ccccc2o1` [2-(benzofuran-2-carboxamido)-4-(5-hydroxybenzofuran-2-yl)thiophene-3-carboxylic acid], the 50% inhibitory concentration (IC50) was less than 10 µM.

For the compound `COc1ccc2oc(-c3csc(NC(=O)c4cc5ccccc5o4)c3C(=O)O)cc2c1` [2-(benzofuran-2-carboxamido)-4-(5-methoxybenzofuran-2-yl)thiophene-3-carboxylic acid], the concentration for half-maximal inhibition (IC50) was less than 10 µM.

Consider `O=C(Nc1scc(-c2cc3ccc(Br)cc3o2)c1C(=O)O)c1cc2ccccc2o1` [2-(benzofuran-2-carboxamido)-4-(6-bromobenzofuran-2-yl)thiophene-3-carboxylic acid], for which the IC50 was less than 10 µM.
